Reference: BindingDB's records for patent US20240352000 (Korea Research Institute of Chemical Technology, 2024)

Tests used:
[1] = biological target: T1, Epidermal growth factor receptor [DEL746-750,T790M,C797S] (Homo sapiens, UniProt P00533, C797S/DEL746-750/T790M); experiment: Measurement of Inhibitory Ability of the Compounds Represented by Formula 1 According to the Present Invention Against Wild Type EGFR and EGFR Mutants
T1 construct: gene EGFR
Method: (§1) An experiment to measure the activity of the compounds of the present invention against EGFR mutant enzymes was performed as follows using the HTRF system sold by Cisbio. For the EGFR del19/T790M mutant enzyme, a recombinant protein provided by Carna Biosciences was purchased and used, and for the EGFR del19/T790M/C797S mutant enzyme, a protein provided by SignalChem was purchased and used as an enzyme source.The composition of the assay buffer used for measuring the activity was 50 mM Tris-HCl pH 7.5, 100 mM NaCl, 7.5 mM MgCl2, 3 mM KCl, 0.01% Tween 20, 0.1% BSA, and 1 mM DTT. Here, an enzyme reaction was performed using […] and a peptide substrate labeled with biotin at a concentration of 0.5 mM. Analysis of the inhibitory effect of the compounds against the EGFR activity was conducted according to the following analysis reaction recipe.Component 1: 4 μL of an EGFR mutant enzymeComponent 2: 2 μL of a compound solutionComponent 3: 4 μL of ATP and a peptide labeled with biotinThe enzyme reaction was started by first mixing Component 1 and Component 2 and then adding Component 3. After reaction at 37° C. for 2 hours, […] consisting of streptavidin-XL665 and europium-labeled anti-phosphotyrosine antibody provided by Cisbio was added to the enzyme reaction solution and reacted at room temperature for 1 hour. Finally, the ratio of fluorescence values at 615 nm and 665 nm was obtained using the Envision equipment from Perkin-Elmer to quantitatively measure the enzyme activity and confirmed the inhibitory ability of the compounds.

[2] = biological target: T2, Epidermal growth factor receptor [DEL746-750,T790M] (Homo sapiens, UniProt P00533, DEL746-750/T790M); experiment: as above
T2 construct: gene EGFR
T2 sequence (P00533 with tags, fused parts or gaps DEL746-750/T790M limits assumed): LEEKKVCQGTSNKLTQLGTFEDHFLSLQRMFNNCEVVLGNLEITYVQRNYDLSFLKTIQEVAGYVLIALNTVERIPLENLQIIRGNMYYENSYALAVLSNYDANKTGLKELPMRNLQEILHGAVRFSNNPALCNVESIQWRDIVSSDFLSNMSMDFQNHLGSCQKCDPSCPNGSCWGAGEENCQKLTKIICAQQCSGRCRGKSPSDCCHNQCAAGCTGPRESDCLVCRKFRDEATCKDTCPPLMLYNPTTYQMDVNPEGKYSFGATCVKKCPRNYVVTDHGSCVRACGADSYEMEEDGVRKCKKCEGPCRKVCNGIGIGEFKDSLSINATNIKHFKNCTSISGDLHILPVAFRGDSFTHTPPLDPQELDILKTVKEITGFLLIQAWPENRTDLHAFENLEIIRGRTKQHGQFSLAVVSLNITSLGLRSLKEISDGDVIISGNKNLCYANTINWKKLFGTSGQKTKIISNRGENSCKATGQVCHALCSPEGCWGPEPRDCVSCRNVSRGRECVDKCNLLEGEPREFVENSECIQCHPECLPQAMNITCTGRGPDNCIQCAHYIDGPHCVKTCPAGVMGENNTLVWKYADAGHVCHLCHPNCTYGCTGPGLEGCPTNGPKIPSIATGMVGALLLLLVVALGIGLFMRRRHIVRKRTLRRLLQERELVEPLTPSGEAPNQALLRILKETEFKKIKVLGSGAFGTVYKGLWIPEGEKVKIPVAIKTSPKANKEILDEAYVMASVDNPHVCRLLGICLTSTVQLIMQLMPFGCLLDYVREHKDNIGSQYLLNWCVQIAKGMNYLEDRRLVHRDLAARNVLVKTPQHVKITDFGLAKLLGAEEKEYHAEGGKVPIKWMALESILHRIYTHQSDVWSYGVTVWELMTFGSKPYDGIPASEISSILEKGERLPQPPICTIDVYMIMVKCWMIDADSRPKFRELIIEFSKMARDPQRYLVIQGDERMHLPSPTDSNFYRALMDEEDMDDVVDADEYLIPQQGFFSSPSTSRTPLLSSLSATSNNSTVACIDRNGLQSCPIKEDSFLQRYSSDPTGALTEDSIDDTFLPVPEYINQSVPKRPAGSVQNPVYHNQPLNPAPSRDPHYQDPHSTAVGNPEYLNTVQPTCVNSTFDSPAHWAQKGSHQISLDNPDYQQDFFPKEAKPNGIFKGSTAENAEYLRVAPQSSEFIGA
Method: as §1

T1 sequence (P00533 with tags, fused parts or gaps C797S/DEL746-750/T790M limits assumed): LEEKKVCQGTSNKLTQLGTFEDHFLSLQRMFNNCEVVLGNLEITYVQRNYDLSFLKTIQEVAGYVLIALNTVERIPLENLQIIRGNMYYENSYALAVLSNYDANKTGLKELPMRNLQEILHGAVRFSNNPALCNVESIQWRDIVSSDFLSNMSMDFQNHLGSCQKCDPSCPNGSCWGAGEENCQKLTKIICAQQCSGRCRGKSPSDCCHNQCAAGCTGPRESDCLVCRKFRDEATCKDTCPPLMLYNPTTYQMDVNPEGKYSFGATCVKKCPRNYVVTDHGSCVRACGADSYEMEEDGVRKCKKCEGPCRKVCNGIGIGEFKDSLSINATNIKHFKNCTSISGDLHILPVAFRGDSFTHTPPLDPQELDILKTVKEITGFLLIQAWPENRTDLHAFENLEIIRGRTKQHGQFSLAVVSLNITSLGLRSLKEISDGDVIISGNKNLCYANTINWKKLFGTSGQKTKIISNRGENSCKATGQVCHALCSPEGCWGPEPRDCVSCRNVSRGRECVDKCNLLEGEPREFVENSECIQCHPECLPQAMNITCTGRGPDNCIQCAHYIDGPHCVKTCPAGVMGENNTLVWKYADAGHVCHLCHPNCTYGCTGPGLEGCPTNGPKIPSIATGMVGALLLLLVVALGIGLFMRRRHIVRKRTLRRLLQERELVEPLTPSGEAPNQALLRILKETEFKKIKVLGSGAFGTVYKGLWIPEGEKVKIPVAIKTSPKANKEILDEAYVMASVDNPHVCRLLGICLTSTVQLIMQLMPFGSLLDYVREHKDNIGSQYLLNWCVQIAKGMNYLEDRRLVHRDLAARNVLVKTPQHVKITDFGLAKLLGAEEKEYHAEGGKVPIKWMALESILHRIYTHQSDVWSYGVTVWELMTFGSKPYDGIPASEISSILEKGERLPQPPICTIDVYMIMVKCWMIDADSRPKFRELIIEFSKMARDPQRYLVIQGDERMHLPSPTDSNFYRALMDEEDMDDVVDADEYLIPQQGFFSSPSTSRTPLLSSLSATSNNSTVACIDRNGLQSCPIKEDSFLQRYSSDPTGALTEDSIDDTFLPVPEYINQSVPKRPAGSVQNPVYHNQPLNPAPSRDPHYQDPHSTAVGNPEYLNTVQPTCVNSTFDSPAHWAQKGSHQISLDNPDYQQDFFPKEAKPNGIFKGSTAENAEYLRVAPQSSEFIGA

Compound	IC50 [1]	IC50 [2]
COc1cc(N(C)CCN(C)C)ccc1Nc1ncc(Cl)c(Nc2cccc3c2N(S(C)(=O)=O)CC3)n1 [US20240352000, Example 3]	< 1 nM	–
COc1cc(N2CCC(N3CCN(C)CC3)CC2)ccc1Nc1ncc(Cl)c(Nc2cccc3c2N(C(C)=O)CCC3)n1 [US20240352000, Example 15]	56 nM	73 nM
CCS(=O)(=O)N1CCc2cccc(Nc3nc(Nc4ccc(N5CCC(N6CCN(C)CC6)CC5)cc4OC)ncc3Cl)c21 [US20240352000, Example 13]	–	< 1 nM
COc1cc(N2CCC(N3CCN(C)CC3)CC2)ccc1Nc1ncc(Cl)c(Nc2cccc3c2N(C(C)=O)CC3)n1 [US20240352000, Example 12]	< 1 nM	–
CCC(=O)N1CCc2cccc(Nc3nc(Nc4ccc(N5CCC(N6CCN(C)CC6)CC5)cc4OC)ncc3Cl)c21 [US20240352000, Example 14]	50 nM	91 nM
COc1cc(N2CCC(N3CCNCC3)CC2)ccc1Nc1ncc(Cl)c(Nc2cccc3c2N(S(C)(=O)=O)CC3)n1 [US20240352000, Example 17]	< 1 nM	–
